In PubChem BioAssay (NCI):
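Exposure lasted 48 hours, with cells grown in 96-well plates and compounds tested at five concentrations. TGI denotes the concentration required for complete inhibition of growth.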

Legend:
Experiment in all cases: NCI-60 cell line screen, 48 h
NCI-H23 lung = tested on: NCI-H23 lung
SF-268 CNS = tested on: SF-268 CNS
OVCAR-5 ovarian = tested on: OVCAR-5 ovarian
ACHN renal = tested on: ACHN renal
SNB-19 CNS = tested on: SNB-19 CNS
SF-539 CNS = tested on: SF-539 CNS
A498 renal = tested on: A498 renal
HOP-92 NSCLC = tested on: HOP-92 NSCLC
UO-31 renal = tested on: UO-31 renal
SF-295 CNS = tested on: SF-295 CNS
K-562 leukemia = tested on: K-562 leukemia
A549 NSCLC = tested on: A549 NSCLC
HCT-15 colon = tested on: HCT-15 colon
HCC-2998 colon = tested on: HCC-2998 colon
MALME-3M melanoma = tested on: MALME-3M melanoma
LXFL 529 NSCLC = tested on: LXFL 529 NSCLC
HL-60(TB) leukemia = tested on: HL-60(TB) leukemia
RXF-631 renal = tested on: RXF-631 renal
SK-MEL-28 melanoma = tested on: SK-MEL-28 melanoma
CCRF-CEM leukemia = tested on: CCRF-CEM leukemia
KM12 colon = tested on: KM12 colon
NCI-H460 lung = tested on: NCI-H460 lung
IGROV1 ovarian = tested on: IGROV1 ovarian
SN12C renal = tested on: SN12C renal
SW-620 colon = tested on: SW-620 colon
M14 melanoma = tested on: M14 melanoma
MOLT-4 leukemia = tested on: MOLT-4 leukemia
OVCAR-4 ovarian = tested on: OVCAR-4 ovarian
SK-MEL-5 melanoma = tested on: SK-MEL-5 melanoma
XF 498 CNS = tested on: XF 498 CNS
786-0 renal = tested on: 786-0 renal
SNB-75 CNS = tested on: SNB-75 CNS
SR leukemia = tested on: SR leukemia
KM20L2 colon = tested on: KM20L2 colon
SK-MEL-2 melanoma = tested on: SK-MEL-2 melanoma
DLD-1 colon = tested on: DLD-1 colon
NCI-H522 lung = tested on: NCI-H522 lung
OVCAR-3 ovarian = tested on: OVCAR-3 ovarian
U251 CNS = tested on: U251 CNS
SK-OV-3 ovarian = tested on: SK-OV-3 ovarian
RXF 393 renal = tested on: RXF 393 renal
HOP-62 NSCLC = tested on: HOP-62 NSCLC
HCT-116 colon = tested on: HCT-116 colon
M19-MEL melanoma = tested on: M19-MEL melanoma
UACC-62 melanoma = tested on: UACC-62 melanoma
CAKI-1 renal = tested on: CAKI-1 renal
EKVX NSCLC = tested on: EKVX NSCLC
OVCAR-8 ovarian = tested on: OVCAR-8 ovarian
HT29 colon = tested on: HT29 colon
SNB-78 CNS = tested on: SNB-78 CNS
TK-10 renal = tested on: TK-10 renal
LOX IMVI melanoma = tested on: LOX IMVI melanoma
RPMI-8226 leukemia = tested on: RPMI-8226 leukemia
UACC-257 melanoma = tested on: UACC-257 melanoma
HOP-18 NSCLC = tested on: HOP-18 NSCLC
DMS 273 small cell lung = tested on: DMS 273 small cell lung
DMS 114 small cell lung = tested on: DMS 114 small cell lung
COLO 205 colon = tested on: COLO 205 colon
NCI-H226 lung = tested on: NCI-H226 lung

NCCSc1cc(O)c2c(c1N)C(=O)c1ccccc1C2=O
TGI (NCI-H23 lung): > 100 µM
TGI (SF-268 CNS): > 100 µM
TGI (OVCAR-5 ovarian): > 100 µM
TGI (ACHN renal): > 100 µM
TGI (SNB-19 CNS): > 100 µM
TGI (SF-539 CNS): > 100 µM
TGI (A498 renal): > 100 µM
TGI (HOP-92 NSCLC): > 100 µM
TGI (UO-31 renal): > 100 µM
TGI (SF-295 CNS): > 100 µM
TGI (K-562 leukemia): 69.1 µM
TGI (A549 NSCLC): > 100 µM
TGI (HCT-15 colon): > 100 µM
TGI (HCC-2998 colon): > 100 µM
TGI (MALME-3M melanoma): 75.5 µM
TGI (LXFL 529 NSCLC): > 100 µM
TGI (HL-60(TB) leukemia): 66.8 µM
TGI (RXF-631 renal): 97.1 µM
TGI (SK-MEL-28 melanoma): > 100 µM
TGI (CCRF-CEM leukemia): 43.1 µM
TGI (KM12 colon): > 100 µM
TGI (NCI-H460 lung): > 100 µM
TGI (IGROV1 ovarian): 65.9 µM
TGI (SN12C renal): > 100 µM
TGI (SW-620 colon): > 100 µM
TGI (M14 melanoma): > 100 µM
TGI (MOLT-4 leukemia): 63.8 µM
TGI (OVCAR-4 ovarian): > 100 µM
TGI (SK-MEL-5 melanoma): 33.4 µM
TGI (XF 498 CNS): 49.5 µM
TGI (786-0 renal): > 100 µM
TGI (SNB-75 CNS): > 100 µM
TGI (SR leukemia): 73.4 µM
TGI (KM20L2 colon): > 100 µM
TGI (SK-MEL-2 melanoma): > 100 µM
TGI (DLD-1 colon): > 100 µM
TGI (NCI-H522 lung): 39.7 µM
TGI (OVCAR-3 ovarian): > 100 µM
TGI (U251 CNS): > 100 µM
TGI (SK-OV-3 ovarian): > 100 µM
TGI (RXF 393 renal): 91.1 µM
TGI (HOP-62 NSCLC): > 100 µM
TGI (HCT-116 colon): > 100 µM
TGI (M19-MEL melanoma): 73.6 µM
TGI (UACC-62 melanoma): > 100 µM
TGI (CAKI-1 renal): > 100 µM
TGI (EKVX NSCLC): > 100 µM
TGI (OVCAR-8 ovarian): > 100 µM
TGI (HT29 colon): > 100 µM
TGI (SNB-78 CNS): > 100 µM
TGI (TK-10 renal): > 100 µM

COc1cc2c(c(OC)c1OC)-c1ccc(SC)c(=O)cc1C(CC(=O)Oc1cccc([N+](=O)[O-])c1)C2 (configuration not stated)
TGI (SF-268 CNS): > 27.2 µM
TGI (OVCAR-5 ovarian): > 100 µM
TGI (ACHN renal): > 100 µM
TGI (SNB-19 CNS): > 100 µM
TGI (SF-539 CNS): 1.32 µM
TGI (A498 renal): 0.823 µM
TGI (LOX IMVI melanoma): > 32.1 µM
TGI (HOP-92 NSCLC): > 100 µM
TGI (RPMI-8226 leukemia): > 54.8 µM
TGI (UO-31 renal): > 100 µM
TGI (SF-295 CNS): > 100 µM
TGI (UACC-257 melanoma): > 100 µM
TGI (K-562 leukemia): > 100 µM
TGI (A549 NSCLC): > 100 µM
TGI (HCT-15 colon): 2.24 µM
TGI (HCC-2998 colon): 0.849 µM
TGI (MALME-3M melanoma): > 100 µM
TGI (LXFL 529 NSCLC): > 100 µM
TGI (RXF-631 renal): 12.8 µM
TGI (SK-MEL-28 melanoma): > 100 µM
TGI (CCRF-CEM leukemia): > 57.2 µM
TGI (HOP-18 NSCLC): > 100 µM
TGI (KM12 colon): 5.4 µM
TGI (NCI-H460 lung): 8.13 µM
TGI (IGROV1 ovarian): > 100 µM
TGI (SN12C renal): > 76.9 µM
TGI (SW-620 colon): > 100 µM
TGI (M14 melanoma): > 100 µM
TGI (MOLT-4 leukemia): > 100 µM
TGI (OVCAR-4 ovarian): > 100 µM
TGI (SK-MEL-5 melanoma): > 100 µM
TGI (XF 498 CNS): 20.3 µM
TGI (786-0 renal): > 100 µM
TGI (DMS 273 small cell lung): > 100 µM
TGI (SNB-75 CNS): 0.71 µM
TGI (KM20L2 colon): 2.06 µM
TGI (SK-MEL-2 melanoma): > 100 µM
TGI (DLD-1 colon): > 56.9 µM
TGI (NCI-H522 lung): 5.81 µM
TGI (OVCAR-3 ovarian): 0.94 µM
TGI (SK-OV-3 ovarian): > 100 µM
TGI (RXF 393 renal): > 100 µM
TGI (HOP-62 NSCLC): > 100 µM
TGI (DMS 114 small cell lung): 3.95 µM
TGI (HCT-116 colon): 3.72 µM
TGI (M19-MEL melanoma): > 100 µM
TGI (COLO 205 colon): 2.24 µM
TGI (CAKI-1 renal): > 100 µM
TGI (EKVX NSCLC): > 100 µM
TGI (OVCAR-8 ovarian): 10.4 µM
TGI (NCI-H226 lung): 3.51 µM
TGI (HT29 colon): 1.99 µM
TGI (SNB-78 CNS): > 100 µM
TGI (TK-10 renal): > 100 µM

O=C1C(=O)N(c2ccc(Cl)cc2)C(=O)C(=O)C1c1nc2ccccc2o1
TGI (NCI-H23 lung): > 100 µM
TGI (SF-268 CNS): > 100 µM
TGI (OVCAR-5 ovarian): > 100 µM
TGI (ACHN renal): > 100 µM
TGI (SNB-19 CNS): > 100 µM
TGI (SF-539 CNS): > 100 µM
TGI (A498 renal): > 100 µM
TGI (LOX IMVI melanoma): > 100 µM
TGI (HOP-92 NSCLC): > 100 µM
TGI (RPMI-8226 leukemia): > 100 µM
TGI (UO-31 renal): > 100 µM
TGI (SF-295 CNS): > 100 µM
TGI (UACC-257 melanoma): > 100 µM
TGI (K-562 leukemia): > 100 µM
TGI (A549 NSCLC): > 100 µM
TGI (HCT-15 colon): > 100 µM
TGI (HCC-2998 colon): > 100 µM
TGI (MALME-3M melanoma): > 100 µM
TGI (LXFL 529 NSCLC): > 100 µM
TGI (HL-60(TB) leukemia): > 100 µM
TGI (RXF-631 renal): > 100 µM
TGI (SK-MEL-28 melanoma): > 100 µM
TGI (CCRF-CEM leukemia): > 100 µM
TGI (KM12 colon): > 100 µM
TGI (NCI-H460 lung): > 100 µM
TGI (IGROV1 ovarian): > 100 µM
TGI (SN12C renal): > 100 µM
TGI (SW-620 colon): > 100 µM
TGI (M14 melanoma): > 100 µM
TGI (MOLT-4 leukemia): > 100 µM
TGI (OVCAR-4 ovarian): > 100 µM
TGI (SK-MEL-5 melanoma): > 100 µM
TGI (XF 498 CNS): > 100 µM
TGI (786-0 renal): > 100 µM
TGI (DMS 273 small cell lung): > 100 µM
TGI (SNB-75 CNS): > 100 µM
TGI (KM20L2 colon): > 100 µM
TGI (SK-MEL-2 melanoma): > 100 µM
TGI (DLD-1 colon): > 100 µM
TGI (NCI-H522 lung): > 100 µM
TGI (OVCAR-3 ovarian): > 100 µM
TGI (U251 CNS): > 100 µM
TGI (SK-OV-3 ovarian): > 100 µM
TGI (RXF 393 renal): > 100 µM
TGI (HOP-62 NSCLC): > 100 µM
TGI (DMS 114 small cell lung): > 100 µM
TGI (HCT-116 colon): > 100 µM
TGI (M19-MEL melanoma): > 100 µM
TGI (COLO 205 colon): > 100 µM
TGI (UACC-62 melanoma): > 100 µM
TGI (CAKI-1 renal): > 100 µM
TGI (EKVX NSCLC): > 100 µM
TGI (OVCAR-8 ovarian): > 100 µM
TGI (NCI-H226 lung): > 100 µM
TGI (HT29 colon): > 100 µM
TGI (SNB-78 CNS): > 100 µM
TGI (TK-10 renal): > 100 µM
